Measured values as given in patent US20250084092A1, “ANNULATED PYRIDAZINE COMPOUND” (Nico Therapeutics, Inc., priority 2021, published 2025).
Structures can show the parent of a compound that is named as a salt.

What follows are compounds tested against T1, NLRP3 inflammasome (Homo sapiens, UniProt Q96P20) (assay: THP-1 IL-1β production inhibition test). Conditions: PMA-treated THP-1 cells, LPS 50 ng/mL + ATP 5 mM, 2 hours, IL-1β in supernatant by ELISA.
T1 construct: endogenous in cells; host or cells: THP-1 cells (PMA-differentiated, stimulated with LPS and ATP)
T1 sequence (Q96P20 whole entry): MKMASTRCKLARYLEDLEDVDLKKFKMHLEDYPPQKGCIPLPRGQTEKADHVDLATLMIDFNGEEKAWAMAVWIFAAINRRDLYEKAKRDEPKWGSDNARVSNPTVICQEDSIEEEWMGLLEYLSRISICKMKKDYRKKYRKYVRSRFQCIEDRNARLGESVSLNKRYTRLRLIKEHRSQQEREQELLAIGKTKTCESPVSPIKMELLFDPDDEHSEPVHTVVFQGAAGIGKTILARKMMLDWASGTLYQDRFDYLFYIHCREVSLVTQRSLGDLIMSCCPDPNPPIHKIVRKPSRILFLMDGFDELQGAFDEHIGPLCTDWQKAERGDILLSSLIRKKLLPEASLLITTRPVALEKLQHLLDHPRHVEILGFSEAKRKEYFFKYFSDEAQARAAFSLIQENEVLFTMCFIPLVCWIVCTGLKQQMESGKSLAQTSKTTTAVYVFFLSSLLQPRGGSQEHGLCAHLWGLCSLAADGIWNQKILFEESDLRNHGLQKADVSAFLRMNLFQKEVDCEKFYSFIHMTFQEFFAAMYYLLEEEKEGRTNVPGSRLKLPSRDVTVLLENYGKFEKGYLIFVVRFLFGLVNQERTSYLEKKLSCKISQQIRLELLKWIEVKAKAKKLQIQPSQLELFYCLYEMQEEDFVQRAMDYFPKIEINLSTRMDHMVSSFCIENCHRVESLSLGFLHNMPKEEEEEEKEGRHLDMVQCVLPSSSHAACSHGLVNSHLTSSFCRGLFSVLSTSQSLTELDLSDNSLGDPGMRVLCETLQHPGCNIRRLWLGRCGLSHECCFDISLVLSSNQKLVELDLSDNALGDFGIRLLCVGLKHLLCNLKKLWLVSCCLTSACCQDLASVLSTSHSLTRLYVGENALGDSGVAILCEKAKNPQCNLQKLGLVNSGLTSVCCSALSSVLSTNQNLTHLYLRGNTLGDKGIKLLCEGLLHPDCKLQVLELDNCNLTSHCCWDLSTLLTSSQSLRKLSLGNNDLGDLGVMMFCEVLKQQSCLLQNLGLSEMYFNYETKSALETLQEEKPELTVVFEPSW
Assay type: cell-based
Experimental: PMA (phorbol myristate acetate, SIGMA, P1585) was added to THP-1 cells in an amount of 50 ng/mL to culture the cells for 2 days at 37° C. […] LPS (Lipopolysaccharide, SIMGA, L2880) and ATP (Adenosine triphosphate, SIGMA, A2383) were added so that final concentrations become 50 ng/mL and 5 mM, respectively, followed by culturing at 37° C. for 2 hours. The supernatants were collected to measure the concentrations of IL-1β by ELISA (DuoSet ELISA human IL-1β, R&D Systems, DY201). The IL-1β concentrations were plotted against log concentrations of test compounds, and an IC50 value was calculated by sigmoid Emax model nonlinear regression analysis.

Structure (SMILES)	IC50
Oc1cc(C(F)(F)F)ccc1-c1nnc(N[C@@H]2CCCN(C3CCC3)C2)c2c1CCCC2 [Example 71]	150 nM
COc1ccc(-c2nnc(N[C@@H]3CCOC[C@H]3O)c3c2CCCCC3)c(O)c1 [Example 49]	22 nM
C[C@]1(O)C[C@@H](Nc2nnc(-c3ccc(C(F)(F)F)cc3O)c3c2COCC3)C1 [56(1)]	7 nM
C[C@@]1(O)CCCC[C@H]1Nc1nnc(-c2ccc(C(F)(F)F)cc2O)c2c1CCCC2 [Example 53]	15 nM
Oc1cc(C(F)(F)F)ccc1-c1nnc(N[C@@H]2CCCC[C@H]2O)c2c1COCCC2 [108(1)]	27 nM
C[C@]1(O)C[C@@H](Nc2nnc(-c3ccc(C(F)(F)F)cc3O)c3c2CCCCC3)C1 [Example 48]	36 nM
O=S1(=O)CCC(Oc2nnc(-c3ccc(C(F)(F)F)cc3O)c3ccccc23)CC1 [Example 10]	24 nM
Cc1ccc(-c2nnc(N[C@H]3C[C@@](C)(O)C3)c3c2CCCC3)c(O)c1 [Example 31]	44 nM
C[C@@H](O)CNc1nnc(-c2ccc(C(F)(F)F)cc2C(F)(F)F)c2c1CCC2 [Example 8]	210 nM
COc1ccc(-c2nnc(NCCCO)c3c2CCCC3)cc1 [Example 7]	8500 nM
Oc1cc(OC(F)(F)F)ccc1-c1nnc(N[C@@H]2CCCC[C@H]2O)c2c1CCCC2 [Example 27]	4.1 nM
Cc1ccc(-c2nnc(N[C@@H]3CCCC[C@H]3O)c3c2CCN(C)C3)c(O)c1 [Example 77]	33 nM
Oc1cc(C(F)(F)F)ccc1-c1nnc(N[C@@H]2CCCC[C@H]2O)c2c1CCCOC2 [108(2)]	3 nM
Oc1cc(C(F)(F)F)ccc1-c1nnc(N[C@@H]2CCOC[C@H]2O)c2c1CCCC2 [Example 35]	16 nM
COc1ccc(-c2nnc(N[C@@H]3CCOC[C@H]3O)c3c2CCCC3)c(O)c1 [Example 38]	54 nM
Cc1cc(O)c(-c2nnc(N[C@@H]3CCCC[C@H]3O)c3c2CCOC3)c(F)c1 [62(1)]	6.1 nM
Oc1cc(C(F)(F)F)ccc1-c1nnc(N[C@@H]2CCCC[C@H]2O)c2c1COCC2 [2(2), 2-(1-{[(1R,2R)-2-hydroxycyclohexyl]amino}-7,8-dihydro-5H-pyrano[3,4-d]pyridazin-4-yl)-5-(trifluoromethyl)phenol]	14 nM
Oc1cc(OC(F)(F)F)ccc1-c1nnc(N[C@@H]2CCOC[C@H]2O)c2c1CCCC2 [Example 37]	18 nM
COc1ccc(-c2nnc(N[C@@H]3CCCC[C@H]3O)c3c2CCCC3)c(O)c1 [Example 28]	14 nM
CCN1CCc2c(-c3ccc(C(F)(F)F)cc3O)nnc(N[C@@H]3CCCC[C@H]3O)c2C1 [Example 78]	54 nM
COc1ccc(-c2nnc(N[C@@H]3CCCC[C@@]3(C)O)c3c2CCCC3)c(O)c1 [Example 58]	88 nM
C[C@]1(O)C[C@@H](Nc2nnc(-c3ccc(OC(F)(F)F)cc3O)c3c2CCOC3)C1 [57(2)]	94 nM
CC(=O)N1CCc2c(-c3ccc(C(F)(F)F)cc3C(F)(F)F)nnc(NC[C@@H](C)O)c2C1 [Example 79, 1-{1-[2,4-bis(trifluoromethyl)phenyl]-4-{[(2R)-2-hydroxypropyl]amino}-7,8-dihydropyrido[3,4-d]pyridazin-6(5H)-yl}ethan-1-one]	4800 nM
N[C@@H]1CCCC[C@H]1Nc1nnc(-c2ccc(C(F)(F)F)cc2O)c2ccccc12 [Example 82, 2-(4-{[(1R,2R)-2-aminocyclohexyl]amino}phthalazin-1-yl)-5-(trifluoromethyl)phenol dihydrochloride]	28 nM
Cc1ccc(-c2nnc(N[C@@H]3CCOC[C@H]3O)c3c2CCCC3)c(O)c1 [Example 36]	32 nM
C[C@@]1(O)CCCC[C@H]1Nc1nnc(-c2ccc(OC(F)(F)F)cc2O)c2c1CCCC2 [Example 54]	21 nM
O=C1NCC[C@@H]1Nc1nnc(-c2ccc(C(F)(F)F)cc2O)c2c1CCCC2 [Example 50]	8.2 nM
Oc1cc(C(F)(F)F)c(F)cc1-c1nnc(N[C@@H]2CCCC[C@H]2O)c2c1CCCC2 [Example 85]	58 nM

The remaining lines, values ahead:

IC50	Structure (SMILES)
1.2 nM	CN1CCC[C@@H](Nc2nnc(-c3ccc(C(F)F)cc3O)c3c2COCC3)C1 [Example 113]
5.1 nM	Oc1cc(C(F)(F)F)ccc1-c1nnc(N[C@@H]2CCCC[C@H]2O)c2c1CSCC2 [Example 102]
45 nM	Oc1cc(C(F)(F)F)ccc1-c1nnc(N[C@@H]2CCCNC2)c2c1CCCC2 [Example 96, 2-(4-{[(3R)-piperidin-3-yl]amino}-5,6,7,8-tetrahydrophthalazin-1-yl)-5-(trifluoromethyl)phenol]
7.1 nM	Oc1cc(C(F)(F)F)ccc1-c1nnc(N[C@@H]2CCCN(C3CC3)C2)c2c1CSC2 [Example 126, 2-(4-{[(3R)-1-cyclopropylpiperidin-3-yl]amino}-5,7-dihydrothieno[3,4-d]pyridazin-1-yl)-5-(trifluoromethyl)phenol]
61 nM	N[C@@H]1CCCC[C@H]1Nc1nnc(-c2ccc(C(F)(F)F)cc2O)c2c1CCOC2 [Example 95, 2-(1-{[(1R,2R)-2-aminocyclohexyl]amino}-7,8-dihydro-5H-pyrano[3,4-d]pyridazin-4-yl)-5-(trifluoromethyl)phenol]
47 nM	CN1CCC[C@@H](Nc2nnc(-c3ccc(C(F)(F)F)cc3O)c3c2CSC3(C)C)C1 [Example 123]
95 nM	Oc1cc(C(F)(F)F)ccc1-c1nnc(N[C@@H]2CCCC[C@H]2O)c2c1CNC2 [Example 98, 2-(4-{[(1R,2R)-2-hydroxycyclohexyl]amino}-6,7-dihydro-5H-pyrrolo[3,4-d]pyridazin-1-yl)-5-(trifluoromethyl)phenol]
8.9 nM	CN1CCC[C@@H](Nc2nnc(-c3ccc(C(F)(F)F)cc3O)c3c2CCOCC3)C1 [Example 105]
4.6 nM	Oc1cc(C(F)(F)F)ccc1-c1nnc(N[C@@H]2CCCC[C@H]2O)c2c1CCCC2 [Example 134, 2-(4-{[(1R,2R)-2-hydroxycyclohexyl]amino}-5,6,7,8-tetrahydrophthalazin-1-yl)-5-(trifluoromethyl)phenol monohydrochloride]
2.2 nM	CN1CCC[C@@H](Nc2nnc(-c3ccc(OC(F)F)cc3O)c3c2COCC3)C1 [Example 136, 5-(difluoromethoxy)-2-(4-{[(3R)-1-methylpiperidin-3-yl]amino}-7,8-dihydro-5H-pyrano[3,4-d]pyridazin-1-yl)phenol dihydrochloride]
4.8 nM	CC(=O)NCCCCNc1nnc(-c2ccc(C(F)(F)F)cc2O)c2c1COCC2 [Example 118]
6 nM	CC(=O)N1CCC[C@@H](Nc2nnc(-c3ccc(C(F)(F)F)cc3O)c3c2CSC3)C1 [Example 119]
47 nM	CC(=O)N1CCc2c(-c3ccc(C(F)(F)F)cc3O)nnc(N[C@@H]3CCCC[C@H]3O)c2C1 [Example 92, 1-[4-{[(1R,2R)-2-hydroxycyclohexyl]amino}-1-[2-hydroxy-4-(trifluoromethyl)phenyl]-7,8-dihydropyrido[3,4-d]pyridazin-6(5H)-yl]ethan-1-one]
15 nM	Oc1cc(C(F)F)ccc1-c1nnc(N[C@@H]2CCC[C@H](O)C2)c2c1COC2 [Example 114, 5-(difluoromethyl)-2-(4-{[(1R,3S)-3-hydroxycyclohexyl]amino}-5,7-dihydrofuro[3,4-d]pyridazin-1-yl)phenol]
1.4 nM	COc1ccc(-c2nnc(N[C@@H]3CCCN(C)C3)c3c2CCOC3)c(O)c1 [Example 110]
4.8 nM	Oc1cc(OC(F)(F)F)ccc1-c1nnc(N[C@@H]2CCC[C@H](O)C2)c2c1CCOC2 [Example 106]
